Here are results for 3 compounds from US11395816B2, “Corroles for treating human cytomegalovirus infections” (UNIVERSITE DE BOURGOGNE, priority 2017, dated 2022).

pIC50: −log10 of the molar value. Read-outs that look alike come from different tables or passages of the source.

Series [1] is described as follows: Toxicity assessment (cytotoxicity) on ARPE-19 cells. It counts as cell-based, human. The following applies: human; ARPE-19 cells, 6 days of treatment, 0.1-50 μM tested. On the procedure:
(§1) hCMV infection was carried out on ARPE-19 cells seeded in 96 wells plate, in duplicate at one or two MOI (multiplicity of infection) and 7 concentrations of FNO2Cor, TPFCor, TpNO2Cor. • D0: MRC5/ARPE-19 cells seeded at 6 k per well in Corning Glass Bottom 96 well plates in 200 μL of DMEM without phenol red. • D1: cells were treated with FNO2Cor, TpNO2Cor, TPFCor (from 50 to 0.1 μM by two fold dilutions) in duplicate for the toxicity study. • D3: ARPE-19 cells were treated with Ganciclovir, FNO2Cor, TpNO2Cor, TPFCor (from 5 to 0.07 μM or from 10 to 0.15 μM by two fold dilutions) and were infected at different MOI in duplicate: MOI 10 or 2 for ARPE-19 cells. • D7: ARPE-19 cells at MOI 10 4 d post-infection were fixed with Formalin 10 min at room temperature. Cells were washed with 200 μL PBS and 100 μL PBS/Hoechst® 33342 ( 1/1000) per well. 96 well plates were kept at 4° C. in the dark until data acquisition Image acquisition and analysis for high content quantification was performed on a Thermo Cellomics Arrayscan™ VTI microscope using a modified compartmental analysis algorithm. • D13: ARPE19 cells at MOI 2 10 days post-infection were fixed and image acquisition and analysis were performed as previously described.
(§2) The toxicity of compounds FNO2Cor or TPFCor on ARPE-19 cells was evaluated after 6 days of treatment. 10 concentrations (50, 25, 12.5, 6.25, 3.1, 1.5, 0.75, 0.5, 0.25, 0.1 μM) of FNO2Cor and TPFCor were studied. The compound TpNO2Cor was used as positive control. Cell culture without treatment was used as negative control.
(§3) Cytotoxicity of compounds FNO2Cor, TPFCor and TpNO2Cor were assessed at different concentrations on ARPE-19 cells according to the method described on section 1.3. TpNO2Cor worked as positive reference.

The test system of a further series is ARPE-19 cells. The series is described as above. Format: cell-based, human. The following applies: for cytotoxicity (in words): ARPE-19 human retinal pigmented epithelium cells, FIG. 1 and Table I. On the procedure:
as §1, §2, §3

The next series concerns hCMV. In words: hCMV infection assay in ARPE-19 cells (infection level and DNA replication by high content microscopy). It counts as cell-based, human cytomegalovirus. On the procedure: ARPE-19 human retinal pigmented epithelium cells were used for hCMV infection assay.
Cells were grown in DMEM without phenol red (Sigma-Aldrich) 10% SVF, Pen-strep, 1× sodium pyruvate, 1× Glutamax.
as §1
On 4 d and 10 d post-infection (2 post-infection times), data acquisition per virus and cell line was done by high content microscopy to calculate infection level and DNA replication according to compound concentration.
Compounds FNO2Cor, TPFCor, TpNO2Cor and anti-hCMV drug Ganciclovir were assessed at 8 different concentrations in ARPE-19 cell culture on 4 days post-infection (FIGS. 2A, 2B) or on 10 days post-infection (FIGS. 3A, 3B) to evaluate their activity for inhibiting hCMV infection and their capacity for inhibiting hCMV replication in ARPE-19 cells.

For series [2] the following is noted: already known, Gros et al., 2015; cited from earlier work.
The mark [3] stands for this setting: Human betaherpesvirus 5, ARPE-19, 96 h, read-out: IC50 ARPE (infection inhibition).
Setting [4] is: Human betaherpesvirus 5, ARPE-19, 96 h, read-out: IC50 ARPE (replication inhibition).
[5] abbreviates: Human betaherpesvirus 5, ARPE-19, 240 h, read-out: IC50 ARPE (infection inhibition).
The mark [6] stands for this setting: Human betaherpesvirus 5, ARPE-19, 240 h, read-out: IC50 ARPE (replication inhibition).
The mark [7] stands for this setting: Table V, head prints 4 d PI, text says 10 d PI.

Broadly, the CC50 is the concentration giving 50% cytotoxicity. In general, pIC50 refers to the negative decadic logarithm of the IC50, by convention in mol/L.

As for `Fc1c(F)c(F)c(-c2c3nc(c4ccc([nH]4)c(-c4c(F)c(F)c(F)c(F)c4F)c4ccc([nH]4)c(-c4c(F)c(F)c(F)c(F)c4F)c4ccc2[nH]4)C=C3)c(F)c1F` [TPFCor, 5,10,15-Tris(pentafluorophenyl)corrole], in series [1], the CC50 at 6 days worked out at 26.1 µM. The “cytotoxicity (in words)” value in the series with ARPE-19 cells was “safe”. For the same compound, the “Selectivity index (infection inhibition)” value in the series on hCMV (4 d PI, Table III) worked out at 7.38; in the series with hCMV (setting [7]), 27.04. For the same compound, the “Selectivity index (replication inhibition)” value in the series with hCMV (4 d PI, Table III) is reported as 16.28; with hCMV (setting [7]), 2.12. Moreover, the pIC50 is 5.45 with hCMV (setting [3]), 5.80 in the series with hCMV (setting [4]), 6.02 in the series with hCMV (setting [5]) and 4.91 with hCMV (setting [6]).
In the series with ARPE-19 cells, `O=[N+]([O-])c1ccc(-c2c3nc(c4ccc([nH]4)c(-c4ccc([N+](=O)[O-])cc4)c4ccc([nH]4)c(-c4ccc([N+](=O)[O-])cc4)c4ccc2[nH]4)C=C3)cc1` [TpNO2Cor, 5,10,15-Tris(4-nitrophenyl)corrole, reference compound] had a half-maximal cytotoxic concentration (CC50) of 25 µM. For the same compound, the pIC50 was 5.40 with hCMV (4 d PI, MOI 10, ARPE-19 cells, read-out: IC50 ARPE (infection inhibition)); 5.08 with hCMV (4 d PI, MOI 10, ARPE-19 cells, read-out: IC50 ARPE (replication inhibition)); 5.75 in the series on hCMV (10 d PI, MOI 2, ARPE-19 cells, read-out: IC50 ARPE (infection inhibition)). In addition, the “cytotoxicity (in words)” value in series [2] is “not cytotoxic”.
`O=[N+]([O-])c1ccc(F)c(-c2c3nc(c4ccc([nH]4)c(-c4cc([N+](=O)[O-])ccc4F)c4ccc([nH]4)c(-c4cc([N+](=O)[O-])ccc4F)c4ccc2[nH]4)C=C3)c1` [FNO2Cor, 5,10,15-Tris(2-fluoro-5-nitrophenyl)corrole] came in with a CC50 at 6 days in series [1] of 50 µM. Also, the “cytotoxicity (in words)” value with ARPE-19 cells is “safe”. Moreover, the “Selectivity index (infection inhibition)” value was determined as 21.05 in the series on hCMV (4 d PI, Table III) and 39.94 in the series with hCMV (setting [7]). For the same compound, the “Selectivity index (replication inhibition)” value with hCMV (4 d PI, Table III) is listed as 8.45; in the series on hCMV (setting [7]) it was 4.24. Besides, the negative-log IC50 (pIC50) in the series with hCMV (setting [3]) was 5.62; in the series with hCMV (setting [4]), 5.23; with hCMV (setting [5]) it was 5.90; in the series with hCMV (setting [6]), 4.93.
